Measurements taken from publication PMC4357247, “Novel agonists for serotonin 5-HT7 receptors reverse metabotropic glutamate receptor-mediated long-term depression in the hippocampus of wild-type and Fmr1 KO mice, a model of Fragile X Syndrome” (Frontiers in Behavioral Neuroscience, 2015).
pKi: −log10 of the molar value. Several values for one entry are separate records, joined by “and”; a condition that tells them apart may be missing. Equal entries are not always repeated.

What was measured:
[1] = system: mGluR-LTD in CA1 pyramidal neurons of hippocampal slices (native 5-HT7 receptors); assay: Patch clamp: reversal of DHPG-induced mGluR-LTD of EPSCs in CA1 pyramidal neurons, hippocampal slices from wild-type mice; assay type: cell-based; settings: 5 min, measured 45 min after DHPG; for EPSC amplitude: compound 10 nM
Protocol: (§1) Patch clamp experiments were performed on mouse hippocampal slices from wild-type (wt) mice (FVB and C57BL/6J background) and Fmr1 KO2 mice (C57BL/6J background, kindly provided by Prof. Willemsen, Erasmus MC, Rotterdam, The Netherlands). […] Every care was taken to maximally reduce the number of animals and to minimize discomfort.
(§2) Acute hippocampal slices ([…]) were cut with a vibratome (Leica VT 1200). Slices were continually perfused with oxygenated ACSF. After 3 h of recovery, one slice was placed in the recording chamber of a patch camp set up and viewed with infrared microscopy (Leica DMLFS). A tungsten electrode was placed in the stratum radiatum to stimulate Schaffer collaterals with negative current pulses (duration 0.3 ms, delivered every 15 s by A310 Accupulser, WPI, USA). Evoked AMPA receptor-mediated excitatory post-synaptic currents (EPSCs) were recorded from CA1 pyramidal neurons under whole-cell patch clamp (holding potential -70 mV; EPC7-plus amplifier HEKA, Germany). Stimulation intensity was set to induce half-maximal EPSC amplitude. Series resistance (Rs) was monitored throughout the recording by means of 10 mV hyperpolarizing pulses; recordings were discarded from analysis if Rs changed by more than 20%. EPSC traces were filtered at 3 kHz and digitized at 10 kHz. Data were acquired and analyzed using Signal software (CED, England). The recording micropipette (resistance 1.5–3 MΩ) was filled with intracellular solution (in mM: K-gluconate 140; HEPES 10; NaCl 10; MgCl2 2; EGTA 0.2; Mg-ATP 3.5; Na-GTP 1; pH 7.3).
(§3) Cumulative histograms indicate % EPSC amplitude (mean ± SEM from groups of neurons) after application of DHPG alone (control LTD) or DHPG followed by a 5-HT7 receptor agonist. EPSC amplitude values from two groups of neurons were compared using the Student's t-test, with n indicating the number of neurons tested in each condition.

5-HT1A receptors = target: T1, 5-HT1A receptors (Homo sapiens, UniProt P08908); assay: Binding affinity for 5-HT1A receptors
T1 sequence (P08908 1-422): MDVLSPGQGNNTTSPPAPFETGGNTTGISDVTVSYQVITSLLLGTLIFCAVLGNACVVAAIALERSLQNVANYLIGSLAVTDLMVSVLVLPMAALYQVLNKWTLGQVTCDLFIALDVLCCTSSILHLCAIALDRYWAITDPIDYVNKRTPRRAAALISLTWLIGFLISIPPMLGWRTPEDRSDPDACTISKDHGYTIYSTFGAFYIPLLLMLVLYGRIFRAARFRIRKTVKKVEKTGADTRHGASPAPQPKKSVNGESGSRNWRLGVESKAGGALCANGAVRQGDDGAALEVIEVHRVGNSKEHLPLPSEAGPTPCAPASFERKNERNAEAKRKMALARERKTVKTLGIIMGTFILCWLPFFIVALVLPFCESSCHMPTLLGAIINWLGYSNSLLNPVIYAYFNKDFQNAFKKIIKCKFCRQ
Description: Table 1 Binding Affinity Data and Pharmacokinetic Parameters of Test Compounds. | column: 5-HT1AKi [nM]

[2] = system: mGluR-LTD in CA1 pyramidal neurons of hippocampal slices (native 5-HT7 receptors); assay: Patch clamp: reversal of DHPG-induced mGluR-LTD of EPSCs in CA1 pyramidal neurons, hippocampal slices from Fmr1 KO mice; assay type: cell-based; settings: Fmr1 KO (C57BL6J) slices, 5 min; for EPSC amplitude: compound 10 nM, applied after DHPG (100 μM, 5 min)
Protocol: as §1, §2, §3

[3] = Metabolic stability in mouse hepatic microsomes with NADPH-generating system; assay type: in vitro ADME; settings: pH 7.4; for half-life at 1 μM: mouse liver microsomes 0.5 mg/mL, 1 μM compound, 37°C; for microsomal CLint at 1 μM: calculated from in vitro half-life, mouse liver microsomes
Protocol: Metabolic reactions were initiated by the addition of a NADPH regenerating system (NADP, glucose-6-phosphate, glucose-6-phosphate dehydrogenase, final glucose-6-phosphate dehydrogenase concentration, 1 unit/mL). Aliquots were removed (0, 5, 10, 30, and 60 min) and immediately mixed with an equal volume of cold acetonitrile containing internal standard. Test compound incubated with microsomes without NADPH regenerating system for 60 min was included. […] The column used was a Phenomenex Gemini C-18 (250 × 4.6 mm, 5 μm particle size). The samples were isocratically eluted using CH3CN/ammonium formate (20 mM, pH 5.5) 7:3 (v/v) as mobile phase. […] Liver microsomes provide the most convenient way to study cytochrome P450 enzyme-mediated metabolism.

[4] = set-up: method as in Leopoldo et al., 2008; settings: mice, intraperitoneal injection; ref Leopoldo et al., 2008; cited from earlier work
P-glycoprotein (P-gp) = target: T2, P-glycoprotein (P-gp) (Homo sapiens, UniProt P08183); assay: Efflux ratio (BA/AB) in Caco-2 cells monolayer; assay type: in vitro ADME; settings: efflux ratio basal-to-apical / apical-to-basal, Caco-2 monolayer, cutoff 3 for P-gp substrate
T2 construct: fluxes in Caco-2 cells monolayer; endogenous in cells; host or cells: Caco-2 cells
Description: This system is an in vitro model to evaluate the interaction of small molecules with P-glycoprotein (P-gp), an efflux pump localized on the blood-brain barrier that prevents xenobiotics to enter the brain. Therefore, a centrally acting drug should not be a P-gp substrate.

5-HT7 receptors = 5-HT7 receptors (Homo sapiens, UniProt P34969); assay: Radioligand binding affinity for 5-HT7 receptors
[5] = wt FVB slices, applied after DHPG (100 μM, 5 min)

5-HT7 receptors, sequence (P34969 whole entry): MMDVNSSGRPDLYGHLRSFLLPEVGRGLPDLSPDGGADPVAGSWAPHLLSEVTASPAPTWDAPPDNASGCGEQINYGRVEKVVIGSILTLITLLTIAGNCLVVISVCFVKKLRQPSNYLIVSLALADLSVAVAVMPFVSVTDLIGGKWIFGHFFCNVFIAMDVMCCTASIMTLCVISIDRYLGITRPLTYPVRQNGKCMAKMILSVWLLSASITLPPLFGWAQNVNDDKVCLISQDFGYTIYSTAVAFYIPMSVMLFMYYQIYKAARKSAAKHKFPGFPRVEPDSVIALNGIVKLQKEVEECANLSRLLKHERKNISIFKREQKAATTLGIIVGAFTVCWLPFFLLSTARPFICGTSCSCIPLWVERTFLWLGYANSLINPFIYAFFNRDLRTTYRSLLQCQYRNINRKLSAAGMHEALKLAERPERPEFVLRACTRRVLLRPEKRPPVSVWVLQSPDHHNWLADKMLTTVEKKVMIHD
T2 sequence (P08183 whole entry): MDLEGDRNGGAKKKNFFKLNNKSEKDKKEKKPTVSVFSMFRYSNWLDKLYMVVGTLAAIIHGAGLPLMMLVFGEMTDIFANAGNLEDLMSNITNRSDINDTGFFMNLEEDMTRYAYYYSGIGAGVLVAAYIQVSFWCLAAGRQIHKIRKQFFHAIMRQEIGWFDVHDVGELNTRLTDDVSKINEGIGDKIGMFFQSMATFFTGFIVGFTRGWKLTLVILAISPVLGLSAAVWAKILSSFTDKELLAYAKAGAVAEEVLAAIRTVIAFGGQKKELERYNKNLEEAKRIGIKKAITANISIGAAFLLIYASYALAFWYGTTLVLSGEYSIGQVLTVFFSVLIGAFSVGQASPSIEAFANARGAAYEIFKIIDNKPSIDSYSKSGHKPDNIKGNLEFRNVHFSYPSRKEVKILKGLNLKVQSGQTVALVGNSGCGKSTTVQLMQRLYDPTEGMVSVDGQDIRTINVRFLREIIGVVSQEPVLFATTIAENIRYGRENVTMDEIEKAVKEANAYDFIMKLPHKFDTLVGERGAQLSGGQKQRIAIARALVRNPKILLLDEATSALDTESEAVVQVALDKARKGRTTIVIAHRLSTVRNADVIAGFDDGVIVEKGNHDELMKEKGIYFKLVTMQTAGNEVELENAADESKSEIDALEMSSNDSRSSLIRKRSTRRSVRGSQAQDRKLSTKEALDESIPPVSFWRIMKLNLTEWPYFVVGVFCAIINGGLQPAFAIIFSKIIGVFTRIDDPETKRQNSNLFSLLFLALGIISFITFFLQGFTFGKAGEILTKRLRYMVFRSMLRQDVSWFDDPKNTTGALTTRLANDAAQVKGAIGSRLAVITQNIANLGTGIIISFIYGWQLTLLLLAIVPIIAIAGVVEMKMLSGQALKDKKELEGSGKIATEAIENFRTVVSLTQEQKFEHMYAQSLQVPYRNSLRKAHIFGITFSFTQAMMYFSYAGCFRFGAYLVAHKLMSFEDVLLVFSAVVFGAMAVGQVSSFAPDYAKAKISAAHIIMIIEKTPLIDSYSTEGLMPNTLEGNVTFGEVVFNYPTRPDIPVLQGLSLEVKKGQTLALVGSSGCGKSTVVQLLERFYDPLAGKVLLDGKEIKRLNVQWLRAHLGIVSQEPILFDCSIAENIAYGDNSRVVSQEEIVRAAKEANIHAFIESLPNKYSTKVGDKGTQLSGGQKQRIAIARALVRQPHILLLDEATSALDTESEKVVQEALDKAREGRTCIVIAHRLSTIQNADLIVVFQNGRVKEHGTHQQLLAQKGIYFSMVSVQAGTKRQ

SMILES	EPSC amplitude [1, 5]	pKi (5-HT1A receptors)	half-life at 1 μM [3] [min]	microsomal CLint at 1 μM [3] [µL/min/mg]	also measured
c1ccc(-c2ccccc2N2CCNCC2)cc1 [RA-7, 1-(2-biphenyl)piperazine]	64 ± 7 % of control	–	–	–	–
N#Cc1ccc(CNC(=O)CCCCCN2CCN(c3ccccc3-c3ccccc3)CC2)cc1 [LP-211, N-(4-cyanophenylmethyl)-4-(2-diphenyl)-1-piperazinehexanamide, reference compound]	–	6.73	10.6	131	EPSC amplitude ([1]; wt C57BL/6J slices, applied 5 min after DHPG (100 μM, 5 min)): 99.4 ± 1.5 % of control; EPSC amplitude ([2]; 45 min after DHPG): 78 ± 5 % of control; EPSC amplitude ([2]; 55 min after DHPG): 97 ± 3 % of control; in vivo half-life [4]: 65 min
COc1ccc(-c2ccccc2N2CCN(CCCCCC(=O)NCc3ccc(F)nc3)CC2)cc1 [PF-62, N-(2-fluoropyridin-5-ylmethyl)-4-[2-(4-methoxy)phenyl]-1-piperazinehexanamide]	–	6.82	6.7	205	efflux ratio (P-glycoprotein (P-gp)): 4.2; pKi (5-HT7 receptors): 8.42
N[C@H](C(=O)O)c1cc(O)cc(O)c1 [DHPG, S-3,5-DHPG]	–	–	–	–	EPSC amplitude after DHPG alone (mGluR-LTD) ([1]; wt C57BL/6J slices, DHPG 100 μM): 74.4 ± 9.8 % of control; EPSC amplitude after DHPG alone (mGluR-LTD) ([2]; DHPG 100 μM, measured 45 min after DHPG): 56 ± 5 % of control and 56 ± 12 % of control
COc1ccc(-c2ccccc2N2CCN(C[C@@H](O)COc3cnccn3)CC2)cc1 [BA-10, (R)-1-[4-[2-(4-methoxyphenyl)phenyl]piperazin-1-yl]-3-(2-pyrazinyloxy)-2-propanol]	–	–	14.8	96	–
COc1ccc(-c2ccccc2N2CCNCC2)cc1 [PM-20, 1-[2-(4-methoxyphenyl)phenyl]piperazine]	60 ± 7 % of control	–	–	–	–
